How the values were obtained:
[1] = test system: human Dendritic Cells (differentiated from PBMCs); test: Cap immunogenicity by multiplexed cytokine screening (Luminex) in dendritic cells; type: cell-based; details: human DCs, 24 hours, compared with Cap1 (FIGS. 3A-3F)
Description: Fresh human Dendritic Cells (differentiated from PBMCs by GM-CSF+IL-4 stimulation) were plated at 5e4 cells per well in 96 well flat TC treated dish. mRNA was prepared in Lipofectamine MessengerMAX transfection reagent according to manufacturer's instructions at 2ng/1 k cells. Briefly, mRNA was diluted to 0.02 μg/μl in Opti-MEM reduced serum medium and mixed 1:1 with MessengerMAX to a concentration of 0.01 μg/μl. Two 1:10 dilutions were performed and 10 or 2.5 μl per well of each dilution was added directly to DCs in resulting doses of 2, 0.5, 0.2, 0.05 and 0.02 ng per 1000 DCs. Immunostimulatory RIG-1 agonist Hairpin RNA (3p-hpRNA, InvivoGen) and double stranded RNA (5′ ppp-dsRNA, InvivoGen) were used as controls and formulated as described above.
Stimulated DCs were incubated for 24 hours at 37° C. with 5% CO2. Supernatant was collected and immediately frozen at −80° C. It was subsequently thawed and prepared for Luminex xMAP analysis using a Human Inflammation 20-Plex ProcartaPlex Panel kit (ThermoFisher) according to the manufacturer's instructions. Data was acquired on a MAGPIX system (Luminex xMAP instrument) and pg/mL values for each analyte were derived from a standard curve generated with kit components. Values outside the range of the standard curve were reported as mean fluorescence intensity (MFI).

Balb/c mice = test: In vivo expression of Lucia mRNAs containing cap analogs; details: Lucia mRNA capped with the compound, compared with Cap1 (FIG. 1C)
Description: Candidate RNAs were formulated using proprietary lipid-based delivery vehicles (e.g., as described in WO 2020/069442 and WO 2023/014931) and administered to Balb/c mice at a dose of 15 μg per mouse. In life serum draws were conducted via submandibular vein at selected time points starting 2 hours post-dose. Serum was diluted 5 μL into […] of QUANTI-Luc reagent (InvivoGen, San Diego, CA, USA) and measured immediately using a plate reader (Molecular Devices, San Jose, CA, USA).

[2] = target: T1, HiScribe T7 RNA synthesis kit (IVT reaction, DNA template encoding Lucia) (Escherichia phage T7, UniProt P00573); test: In vitro transcription (IVT) of mRNAs containing cap analogs: yield / incorporation; type: biochemical
T1 construct: purchased New England Biolabs
T1 sequence (P00573 whole entry): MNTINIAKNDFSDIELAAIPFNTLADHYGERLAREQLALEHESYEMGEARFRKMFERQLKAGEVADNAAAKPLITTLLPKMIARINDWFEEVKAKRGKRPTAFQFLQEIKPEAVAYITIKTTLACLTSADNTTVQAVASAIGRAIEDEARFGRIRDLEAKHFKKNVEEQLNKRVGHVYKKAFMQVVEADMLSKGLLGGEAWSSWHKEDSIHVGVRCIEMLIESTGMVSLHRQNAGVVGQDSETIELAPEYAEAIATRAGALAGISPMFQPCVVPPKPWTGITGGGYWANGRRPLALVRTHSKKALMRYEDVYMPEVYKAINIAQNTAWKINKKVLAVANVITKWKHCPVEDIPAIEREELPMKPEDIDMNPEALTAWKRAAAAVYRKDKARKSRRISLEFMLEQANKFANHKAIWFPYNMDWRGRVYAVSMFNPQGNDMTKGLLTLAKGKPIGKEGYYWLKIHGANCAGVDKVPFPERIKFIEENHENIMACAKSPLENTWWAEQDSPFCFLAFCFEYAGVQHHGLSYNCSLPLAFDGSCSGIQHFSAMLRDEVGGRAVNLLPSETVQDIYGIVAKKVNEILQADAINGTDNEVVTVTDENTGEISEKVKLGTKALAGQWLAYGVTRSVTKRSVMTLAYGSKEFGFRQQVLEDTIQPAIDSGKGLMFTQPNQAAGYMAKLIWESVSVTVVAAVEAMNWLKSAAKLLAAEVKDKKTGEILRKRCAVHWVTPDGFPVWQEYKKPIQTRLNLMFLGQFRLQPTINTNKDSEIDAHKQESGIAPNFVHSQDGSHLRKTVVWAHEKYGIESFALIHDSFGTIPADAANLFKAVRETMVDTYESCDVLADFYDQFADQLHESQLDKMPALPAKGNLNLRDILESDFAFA
Description: mRNA was transcribed from DNA template encoding Lucia using HiScribe T7 RNA synthesis kit (New England Biolabs, Ipswich, MA, USA). N^1-Methylpseudo-UTP (TniLink, San Diego, CA, USA) was used in replaced of UTP for the reaction. For 5′ capping of the mRNA, the cap analog compounds (e.g., Compounds 1-4) described herein, or CleanCap (TriLink, San Diego, CA, USA), were added to the IVT reaction, as indicated. The reactions were performed for 4 hours at 37° C.
Purification of the transcript was performed by TURBO DNase digestion (ThermoFisher Scientific, Waltham, MA, USA) for 30 min at 37° C. followed by RNAClean XP beads (Beckman Coulter) clean up. The RNA bound beads were washed 3 times with freshly prepared 70% ethanol, air dried for 15 minutes followed by elution in 200 μL of nuclease free water. The purified mRNA was quantified using nanodrop (ThermoFisher Scientific, Waltham, MA, USA) and analyzed using Tapestation (Agilent, Santa Clara, CA, USA).

SMILES | immunogenicity across key cytokine markers (IFNγ, IFNα, IP-10, IL-1α, TNFα) [1] | in vivo expression (Balb/c mice) | IVT yield ([2]; mRNA capped with the compound, compared with Cap1 (FIG. 1A)) | incorporation into IVT ([2]; trinucleotide cap modified at the 7G position)
CC[n+]1cn([C@@H]2O[C@H](COP(=O)(O)OP(=O)(O)OP(=O)(O)OC[C@H]3O[C@@H](n4cnc5c(N)ncnc54)[C@H](OC)[C@@H]3O[P@@]([O-])(=S)OC[C@H]3O[C@@H](N4C=NC5C(=O)NC(N)=NC54)[C@H](O)[C@@H]3O)[C@@H](O)[C@H]2O)c2nc(N)[nH]c(=O)c21 (stereo partly shown) [Compound 3] | lower | – | – | –
CC[n+]1cn([C@@H]2O[C@H](COP(=O)(O)OP(=O)([O-])OP(=O)(O)OC[C@H]3O[C@@H](n4cnc5c(N)ncnc54)[C@H](OC)[C@@H]3OP(=O)(O)OC[C@H]3O[C@@H](n4cnc5c(=O)[nH]c(N)nc54)[C@H](O)[C@@H]3O)[C@@H](O)[C@H]2O)c2nc(N)[nH]c(=O)c21 [Compound 1] | – | equivalently | equivalently | successfully incorporated
